Here are results for three compounds from article PMC9925432, “Thioquinoline derivatives conjugated to thiosemicarbazide as potent tyrosinase inhibitors with anti-melanogenesis properties” (Scientific Reports, 2023).

One data set deals with melanoma cells. More on the design: method as in PMID 28393917. Conditions: cited from earlier work.
The target in data set [1] is mushroom tyrosinase. Conditions: cited from earlier work.
Details of data set [2]: method as in PMID 33640246. Conditions: at 8 µM; cited from earlier work.
The next data set has as its system A375 cell line. Briefly: Melanin content assay. In kind it is cell-based. The note with it: A375, 48 h, at tested concentrations, kojic acid positive control. The procedure: The assay was performed according to previously reported procedures. In detail, A375 cells were seeded in six-well plates (2.0 × 10^5 cells/well). After 24 h, the medium was replaced by a fresh one and treated with 10g at different concentrations and the plate was incubated for an extra 48 h. After that cells were washed twice with PBS and harvested using […], then dissolved in 300 μl of 1 N NaOH/10% DMSO buffer and boiled for 2 h at 80 °C to solubilize the melanin. The absorbance of the supernatant was measured at 470 nm in a microplate reader. The obtained results were normalized using total protein content. Kojic acid was used as a positive[30],[34].

The test system of another data set is tyrosinase. Nature of the data set: Fluorescence quenching of tyrosinase (Stern–Volmer). Type of data set: binding. The procedure: The fluorescent measurements were carried out in each well of the black 96 well plate by adding various concentrations of inhibitor 10g, (Q = 5, 10, 20, 40, and 100 µM) to a constant concentration of tyrosinase (273 IU/mL). Next, phosphate buffer solution (0.05 M, pH = 6.8) was used to bring the capacity of each well to 200 µL. Before measurements, all solutions were properly mixed and allowed to stand for 20 min at 298 K and 304 K. A fluorescence spectrometer (BioTek’s multi-mode plate reader, USA) was used to measure the fluorescence spectra. The bandwidths of excitation and emission were both set at 5 nm, and fluorescence emission spectra were captured spanning the wavelength range of 310–400 nm at an excitation wavelength of 280 nm.
The linear Stern–Volmer Eq. (1) was used to examine the fluorescence quenching:1 F0/F=1+kqτ0Q=1+kSV[Q] where, F and F0 represent the fluorescence intensity in the presence or absence of inhibitors, respectively. The bimolecular quenching constant is denoted by the symbol kq, whereas the average lifespan of a biomolecule without a quencher is denoted by the symbol τ0, and its value is 10^−8 s. [Q] refers to the inhibitor concentration (µM). KSV which is calculated by kq . τ0. is the fluorescence quenching constant.
In order to calculate the apparent binding constant and binding fraction of fluorophore group of tyrosinase accessible to inhibitor 10g, Stern–Volmer Eq. (1) should be modified to Eq. (2):2 LogF0-F/F=log KA+n LogQ
In this equation, KA indicates either the modified apparent binding constant or the Stern–Volmer quenching constant. n represents the fraction of fluorophore accessible to the quencher. The intercept of the curve that is obtained by plotting log (F0-F/F) versus log [Q] is log KA, and the slope of the curve is n. Therefore, the intercept and slope data may be used to calculate the values of KA and n.

A further data set concerns A375 cells. Briefly: MTT assay for cell viability, A375. Type of data set: cell-based. The note with it: up to 32 μM. On the procedure:
(§1) The cytotoxic activity of all derivatives against the HEK 293 cell line and 10g against A375 (at a density of 5 × 10^3 cells/ml) using 3-(4,5-dimethylthiazol-2-yl)-2,5- diphenyltetrazolium bromide (MTT) assay were performed. Cells were grown at 37 °C in the presence of CO2 5% in DMEM (Gibco BRL, Grand Island, NY, USA), 10% fetal bovine serum (FBS, Gibco BRL), and penicillin/streptomycin (100 IU/mL and 100 µg/mL, respectively). Next cells were seeded in a 96-well plate and incubated at 37 ^∘C with derivatives at different concentrations for 48 h. Following the treatment, cells were incubated with MTT (0.5 mg/ml) at 37 ^∘C for 3 h. The MTT-containing medium was then removed, and 100 μl of DMSO was added to each well, mixed thoroughly with a 10 min shake to dissolve formazan crystals. The absorbance of each well was measured at 540 nm[33].

Data set [3] is described as follows: MTT assay for cell viability, A375. In kind it is cell-based. The note with it: human, A375 cells, 48 h, mean ± S.E.M. On the procedure:
as §1

Another data set has as its system HEK 293 cell line. Nature of the data set: MTT assay for cell viability, HEK 293. In kind it is cell-based. Conditions: HEK 293, 32 µM, 48 h, MTT; mean ± S.E.M.; 32 µM. On the procedure:
as §1

A short description of data set [4]: MTT assay for cell viability, HEK 293. Type of data set: cell-based. The note with it: human, HEK 293 cells, 48 h, MTT, mean ± S.E.M. On the procedure: as §1
Data set [5] relates to mushroom tyrosinase. Briefly: Enzyme kinetic study (Lineweaver–Burk plot). In kind it is biochemical. The procedure: The Lineweaver–Burk reciprocal plot was provided by plotting 1/V against 1/[S] at variable concentrations of the substrate L-Dopa (0.25, 0.5, 0.75, and 1 mM) The inhibition constant Ki was achieved by the plot of slopes versus the corresponding concentrations of the compound 10g[24].

Data set [6] deals with T1, Mushroom tyrosinase (EC 1.14.18.1) (Agaricus bisporus, UniProt C7FF04).
T1 construct: purchased Sigma Chemical Co
Nature of the data set: Tyrosinase inhibitory assay (colorimetric, diphenolase activity, L-Dopa). Type of data set: biochemical. The note with it: L-Dopa as substrate; means ± RSD of 3 independent experiments. The procedure: Mushroom tyrosinase (EC 1.14.18.1) (Sigma Chemical Co.) was assayed using L-Dopa as the substrate as reported in our previous studies with some modifications[30]–[32]. The enzyme diphenolase activity was monitored spectrophotometrically by observing dopachrome formation at 490 nm. All the test samples were first dissolved in DMSO at 10 mM and diluted to the required concentrations. Initially, in a 96-well microplate, 10 µl of test samples were added to 160 µl of 50 mM phosphate buffer (pH = 6.8) and then 10 µl tyrosinase (500 U mL^−1) was added. After the mixture was pre-incubated at 28 °C for 20 min, 20 µl of L-Dopa solution (7 mM) was added to the mixture. After 10 min incubation absorbance of samples was measured. DMSO without test compounds was used as the control, and kojic acid was used as a positive control. Each assay was conducted as three separate replicates. The inhibitory activity of the tested compounds was expressed as the concentration that inhibited 50% of the enzyme activity (IC50). […]

Entries after “also recorded” stand apart in the source; their conditions may differ. Where two headings read alike, the source gives them in different places. Some results are limits rather than exact numbers.

T1 sequence (C7FF04 1-392 limits assumed): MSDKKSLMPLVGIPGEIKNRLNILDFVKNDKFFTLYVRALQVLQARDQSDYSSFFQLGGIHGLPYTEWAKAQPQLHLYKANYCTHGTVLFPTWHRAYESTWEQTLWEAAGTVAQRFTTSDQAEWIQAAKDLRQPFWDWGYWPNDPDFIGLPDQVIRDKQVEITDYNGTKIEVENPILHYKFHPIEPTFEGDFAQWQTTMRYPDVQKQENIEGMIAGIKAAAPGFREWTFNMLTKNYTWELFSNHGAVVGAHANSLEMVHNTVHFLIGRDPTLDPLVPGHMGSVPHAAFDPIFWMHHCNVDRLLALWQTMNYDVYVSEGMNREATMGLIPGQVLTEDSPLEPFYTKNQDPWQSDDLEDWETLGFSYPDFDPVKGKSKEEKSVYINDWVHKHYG

`Oc1cnc2c(O)cccc2c1` [Jineol]: the “effect on melanin content” value with melanoma cells is recorded as “reduced melanin content”. The IC50 at mushroom tyrosinase [1] (L-Dopa as substrate) is 50.35 ± 0.05 µM; at mushroom tyrosinase [1] (L-tyrosine as substrate), 39.46 ± 0.01 µM.

In the case of `O=c1cc(CSc2nc3ccccc3c(=O)n2Cc2ccccn2)occ1O` [C], the melanin content in data set [2] is 68.99%.

As for `NC(=S)N/N=C/c1cc2ccccc2nc1SCC(=O)Nc1ccc(Cl)cc1` [Compound 10g, (E)-2-((3-((2-carbamothioylhydrazono)methyl)quinolin-2-yl)thio)-N-(4-chlorophenyl)acetamide], the melting point was 185 to 191 °C. Also, the “effect on melanin content” value in the data set with A375 cell line is listed as “reduced the melanin content; also recorded: significant reduction of melanin content”. Moreover, in the data set on tyrosinase (298 K), the “KA (binding constant)” value came to 71150 L/mol, the “Kq (bimolecular quenching constant)” value is listed as 6.69 × 10^12 L⋅mol^–1⋅s^–1, the “Ksv (Stern–Volmer constant)” value is 6.69 × 10^4 L.mol^–1 and the “n (binding sites)” value is 0.9288. Besides, the “n (binding sites)” value in the data set on tyrosinase (298 K and 304 K) was about 1. In addition, the “Kq (bimolecular quenching constant)” value in the data set on tyrosinase (298 K and 304 K, all values) was “higher than 2 × 10^10 L⋅mol^−1⋅s^−1”. In addition, in the data set with tyrosinase (304 K), the “KA (binding constant)” value is 52200 L/mol, the “Kq (bimolecular quenching constant)” value is given as 5.14 × 10^12 L⋅mol^–1⋅s^–1, the “Ksv (Stern–Volmer constant)” value is listed as 5.14 × 10^4 L.mol^–1 and the “n (binding sites)” value was found to be 1.0604. For the same compound, the “toxicity on A375 cell line” value in the data set on A375 cells is “did not show significant toxicity”. This compound also displayed a viability at 48 h, 16 µM in data set [3] (A375, 16 µM) of 93.7 ± 2.24%. The same compound came in with a viability at 48 h, 32 µM in data set [3] (A375, 32 µM) of 87.5 ± 1.53%. Also, in [3] (A375, 64 µM), the viability at 48 h, 64 µM is 61.2 ± 3.91%. Further, the “Cell viability (%)” value in the data set with HEK 293 cell line was determined as 86.14 ± 2.17%. The viability at 48 h, 16 µM in data set [4] (HEK 293, 16 µM) is 92.7 ± 1.47%. The same compound had a viability at 48 h, 32 µM in [4] (HEK 293, 32 µM) of over 85%. The same compound showed a viability at 48 h, 64 µM in [4] (HEK 293, 64 µM) of 72.5 ± 2.41%. Also, in the data set on mushroom tyrosinase [5] (10g 1 µM), the Km was found to be 800 µM and the “Vmax” value worked out at 80.00 mM/min. Also, in the data set with mushroom tyrosinase [5] (10g 10 µM), the Km is 850 µM and the “Vmax” value was 67.57 mM/min. Also, in the data set with mushroom tyrosinase [5] (10g 20 µM), the Km came out at 850 µM and the maximum rate (Vmax) came to 50.25 mM/min. Besides, the Km in the data set on mushroom tyrosinase [5] (10g 40 µM) is 950 µM. The “inhibition pattern (type of inhibition)” value in the data set with mushroom tyrosinase [5] (Lineweaver–Burk plot, L-Dopa as substrate) is “noncompetitive”. Half-maximal inhibition in [6] (IC50) required 25.7 µM.
